For the assay, the system named is M. tuberculosis growth, meropenem IC50 shift with compound. As to the kind of experiment: confirmation, meropenem IC50 shift (AID 485340).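 Further: growth read after one week of culture plus overnight Alamar Blue.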
Where [1] appears, read: compound alone IC50 vs Mtb, compound dose (near its own IC50) 9.38 µM.
The mark [2] stands for this setting: compound dose (near its own IC50) 9.38 µM.
Setting [3] is: compound alone IC50 vs Mtb, compound dose (near its own IC50) 2.35 µM.
Setting [4] is: compound dose (near its own IC50) 2.35 µM.
[5] abbreviates: compound alone IC50 vs Mtb, compound dose (near its own IC50) 0.15 µM.
[6] abbreviates: compound dose (near its own IC50) 0.15 µM.
Setting [7] is: compound alone IC50 vs Mtb, compound dose (near its own IC50) 4.69 µM.
[8] abbreviates: compound dose (near its own IC50) 4.69 µM.
The mark [9] stands for this setting: compound alone IC50 vs Mtb, compound dose (near its own IC50) 1.18 µM.
[10] abbreviates: compound dose (near its own IC50) 1.18 µM.

The source made the active and inactive calls. How the calls were made is not given here. A value given as a limit tells only on which side of the number the result lay.

`O=C(CCCCCN1C(=O)c2cccc([N+](=O)[O-])c2C1=O)Nc1ccccc1F`: the concentration for half-maximal inhibition (IC50) reads like this: under setting [1], 10.2 µM; under setting [2], 1.08 µM (inactive).

On to `COC(=O)c1c(-c2ccc(OC)cc2)oc2ccc(-c3cc(OC)c(OC)c(OC)c3)cc12`, for which the IC50 reads like this: under setting [1], 7.72 µM; under setting [2], 6.1 µM (inactive).

Turning to `COc1cccc(/C=N/NC(=O)NC23CC4CC(CC(C4)C2)C3)c1O`, the IC50 under setting [3] was 2.93 µM and the IC50 under setting [4] was 5.23 µM (inactive).

`CCOc1ccc2c(c1)c(C(C)=O)c(C)n2-c1ccccc1`: the IC50 is, setting by setting: under setting [5], 0.2 µM; under setting [6], 3.86 µM (inactive).

Consider `O=C(CCS(=O)(=O)c1ccc(F)cc1)Nc1nnc(-c2cccs2)o1`, for which the concentration for half-maximal inhibition (IC50) by setting is: under setting [3], 2.94 µM; under setting [4], 5.51 µM (inactive).

`O=C(N/N=C/c1cc([N+](=O)[O-])ccc1O)C1CC1`: the 50% inhibitory concentration (IC50) was 4.14 µM under setting [7] and 5.6 µM (inactive) under setting [8].

Regarding `CC(C)CCN1CC(O)=C(c2nc3ccccc3[nH]2)C1=N`, the IC50 by setting is: under setting [7], 6.68 µM; under setting [8], 4.06 µM (inactive).

Take `O=C(CC12CC3CC(CC(C3)C1)C2)NCc1ccc(F)cc1`: the IC50 under setting [1] came to 7.43 µM and the IC50 under setting [2] is 7.53 µM (inactive).

Take `c1ccc(-n2c3ccccc3c3ccccc32)cc1`: the 50% inhibitory concentration (IC50) by setting is: under setting [3], 3.27 µM; under setting [4], 7.17 µM (inactive).

Turning to `Fc1ccc(-c2csc(NC(=S)Nc3ccccc3)n2)cc1`, the concentration for half-maximal inhibition (IC50) runs as follows: under setting [1], 7.55 µM; under setting [2], 2.74 µM (inactive).

As for `O=C(OC(C(=O)Nc1ccc(Cl)cc1C(F)(F)F)c1ccccc1)C1=COCCO1` (stereo not given), the 50% inhibitory concentration (IC50) is 1.23 µM under setting [9] and 7.47 µM (inactive) under setting [10].

`O=C(Cc1ccccc1Cl)Nc1nc2ccccc2[nH]1`: the IC50 runs as follows: under setting [1], 9.31 µM; under setting [2], under 0.52 µM.

`COc1ccc2oc(C(=O)Nc3nc4ccccc4[nH]3)c(C)c2c1`: the IC50 is, setting by setting: under setting [3], 1.7 µM; under setting [4], 3.58 µM (inactive).

`COc1cccc(/C=N/NC(=O)c2cnccn2)c1O`: the half-maximal inhibitory concentration (IC50) by setting is: under setting [3], 2.58 µM; under setting [4], 3.28 µM (inactive).

Consider `CCCN1C(=O)S/C(=C/c2ccc(N3CCOCC3)o2)C1=O`, for which the 50% inhibitory concentration (IC50) runs as follows: under setting [5], 0.2 µM; under setting [6], 5.45 µM (inactive).

For the compound `COc1cccc(NC(=S)Nc2cc(C)cc(C)n2)c1`, the IC50 is, setting by setting: under setting [7], 6.41 µM; under setting [8], 4.07 µM (inactive).

`CCSc1nnc(NC(=O)C2Cc3ccccc3CN2C(=O)c2ccco2)s1` (stereo not given): the IC50 under setting [3] was determined as 2.69 µM and the IC50 under setting [4] was 6.22 µM (inactive).

On to `CC(=O)c1c(C)[nH]c(C(=O)OCC(=O)Nc2nnc(-c3ccccc3)o2)c1C`, for which the IC50 under setting [7] was 4.19 µM and the IC50 under setting [8] was 7.02 µM (inactive).

`CCOC(=O)Cn1c(=NC(=O)C2CC2)sc2c(C)cc(C)cc21`: the IC50 by setting is: under setting [1], 9.84 µM; under setting [2], 3.54 µM (inactive).

As for `Cc1ccc(OCC(=O)Nc2ccc3c4c(cccc24)CC3)c(C)c1`, the concentration for half-maximal inhibition (IC50) by setting is: under setting [3], 1.71 µM; under setting [4], 7.05 µM (inactive).

Regarding `COc1cc(C(=O)N/N=C/c2ccc(OC(=O)c3cccc(C)c3)cc2)ccc1O`, the half-inhibitory concentration (IC50) is, setting by setting: under setting [7], 4.54 µM; under setting [8], 4.14 µM (inactive).

For `CO/N=C(\C(=O)N[C@@H]1C(=O)N2C(C(=O)O)=C(COC(C)=O)CS[C@H]12)c1csc(N)n1` (stereo in doubt), the IC50 is, setting by setting: under setting [1], 10.3 µM; under setting [2], 1.01 µM (inactive).

Turning to `Cc1cc(C)n(-c2nc3ccccc3c(=O)n2OCC(=O)N(C)C)n1`, the concentration for half-maximal inhibition (IC50) under setting [1] is 7.74 µM and the IC50 under setting [2] was 4.61 µM (inactive).

In the case of `CC(C)(C)c1ccc(C(=O)Oc2ccc3c(c2)OCC3=O)cc1`, the half-inhibitory concentration (IC50) is, setting by setting: under setting [1], 8.64 µM; under setting [2], 4.92 µM (inactive).

In the case of `CSc1nc2cc3c(cc2n1C(=O)c1ccc(C)cc1)OCCO3`, the IC50 runs as follows: under setting [7], 5.15 µM; under setting [8], 4.06 µM (inactive).

Consider `Cc1ccccc1OCC(=O)Nc1ccccc1-c1ccccc1`, for which the IC50 reads like this: under setting [7], 6.04 µM; under setting [8], 4.07 µM (inactive).

Take `O=C(CCN1c2ccccc2Sc2ccccc21)Oc1ccccc1`: the half-inhibitory concentration (IC50) is, setting by setting: under setting [1], 8.48 µM; under setting [2], 2.05 µM (inactive).

As for `O=C(COC(=O)C1CC1)c1c[nH]c2ccccc12`, the IC50 is, setting by setting: under setting [9], 0.999 µM; under setting [10], 4.65 µM (inactive).

As for `S=C(Nc1ccccc1)Nc1ccc(Cl)cn1`, the IC50 under setting [7] was 4.68 µM and the IC50 under setting [8] was 4.86 µM (inactive).

Regarding `COc1ccc(-c2cc(C(N)=O)nc(N3CCCCCC3)n2)cc1`, the half-inhibitory concentration (IC50) reads like this: under setting [7], 3.95 µM; under setting [8], 4.05 µM (inactive).

For the compound `O=c1c(O)c(-c2ccc3c(c2)OCO3)oc2ccccc12`, the IC50 is, setting by setting: under setting [3], 2.12 µM; under setting [4], 7.4 µM (inactive).

For `CC(C)=CCC/C(C)=C/C=N/NC(=O)c1ccc([N+](=O)[O-])cc1`, the concentration for half-maximal inhibition (IC50) by setting is: under setting [9], 1.02 µM; under setting [10], 3.4 µM (inactive).

Turning to `Cc1ccccc1OCC(=O)Nc1ccccc1N1CCCCC1`, the IC50 runs as follows: under setting [7], 5.94 µM; under setting [8], 6.96 µM (inactive).

In the case of `Cn1c(/C=N/c2nc3ccccc3[nH]2)nc2ccccc21`, the IC50 reads like this: under setting [5], 0.2 µM; under setting [6], 6.15 µM (inactive).

As to `COc1cc(/C(C)=N\NC(N)=S)cc(OC)c1OC`, the IC50 was 10.2 µM under setting [1] and 2.82 µM (inactive) under setting [2].

A word on the IC50: it is the concentration that inhibits the measured activity by half.
